# From US4618622A, “Sulfonates of hydroxycoumarins” (priority 1982, dated 1986)
# What was measured:
# Monoaminoxidase A [1] = molecular target: T1, Monoaminoxidase A (Rattus norvegicus, UniProt P21396); conditions: in words, known for the comparative substance; cited from earlier work
# T1 sequence (P21396 1-526): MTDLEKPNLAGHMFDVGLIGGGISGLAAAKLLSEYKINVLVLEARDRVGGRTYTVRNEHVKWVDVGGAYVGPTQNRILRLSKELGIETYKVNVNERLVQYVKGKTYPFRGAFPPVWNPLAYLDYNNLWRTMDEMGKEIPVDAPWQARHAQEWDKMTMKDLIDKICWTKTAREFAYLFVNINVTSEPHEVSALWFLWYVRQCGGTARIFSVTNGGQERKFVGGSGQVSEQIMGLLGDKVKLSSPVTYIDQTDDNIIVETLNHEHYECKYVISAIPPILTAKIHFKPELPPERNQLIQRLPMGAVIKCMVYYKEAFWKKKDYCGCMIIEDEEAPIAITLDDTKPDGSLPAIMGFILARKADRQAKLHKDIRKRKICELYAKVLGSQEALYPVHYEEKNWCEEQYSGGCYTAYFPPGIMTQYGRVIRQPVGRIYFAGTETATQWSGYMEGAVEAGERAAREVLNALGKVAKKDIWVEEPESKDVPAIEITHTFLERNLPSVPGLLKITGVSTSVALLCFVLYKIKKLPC
# Monoaminoxidase A [2] = molecular target: T1, Monoaminoxidase A; experiment: biochemical; conditions: read-out: Monoaminoxidase inhibition IC50
# Protocol: Monoaminoxidase A is determined in dilute rat brain homogenate to which
# 1. various concentrations of the test substances and
# 2. ^14 C-tryptamine in a concentration of 0.4 μmol/liter are added. This mixture is incubated at 37° C. for 20 minutes, after which the reaction is terminated by means of aqueous 0.1N HCl, and the products are extracted with toluene scintillator (PPO+POPOP in toluene) and then determined. The blank value is determined in similar mixtures for an incubation time of t=0 minutes.
# The mean inhibitory concentration (IC50) is calculated from the inhibitory values determined, in comparison with the control, at the various inhibitor concentrations, by means of a linear regression after logit-log transformation.
# [3] = tested on: reserpine-induced hypothermia; experiment: Antidepressant action: inhibition of reserpine-induced hypothermia (reserpine test); assay type: in vivo, mouse (male, Swiss strain); conditions: oral administration, 60 minutes before reserpine 2.15 mg/kg s.c.; mouse; temperature 2 hours after; read-out: Antidepressant action (mouse) ED50
# Protocol: The test substances are administered orally, 60 minutes before the reserpine.
smiles,measurement,setting,value
"C#CCN(C)Cc1ccccc1 [Pargyline, reference compound]",action mechanism (known),Monoaminoxidase A [1],inhibition of monoaminoxidase A
same,IC50,Monoaminoxidase A [2],2 µM
same,ED50,[3],48 mg/kg
